These results are taken from patent US20070248599A1 (priority 2006, published 2007).

Experiment [1] relates to N2a-APPsw cells transfected with ApoER2 and β-secretase. Put plainly: Internalization of cell surface proteins (biotinylation, Western blot). Type of experiment: cell-based, mouse. The protocol: Internalization of cell surface proteins. N2a-APPsw cells were transiently tranfected with ApoER2 and β-secretase with Lipfectamine 2000. […] Cells were then placed on ice, rinsed in cold PBS and incubated in PBS containing 1.5 mg/mL sulfo-NHS-LC-biotin (Pierce) for 20 min at 4° C. Cells were rinsed twice in PBS and lysed in 800 μl PBS containing 0.1% SDS, 1% NP40 and a complete protease inhibitor cocktail. Total protein concentration was determined by immunoblotting from an aliquot of 50 μl cell lysate. Biotinylated proteins were recovered with NeutrAvidin agarose (50 μl; Pierce), rinsed three times, eluted in 20 μl SDS-sample buffer at boiling temperature and used for Western-blot. Quantity of bands was determined by optical scanning instruments specified above. For the determination of internalized proteins, cells were prepared as above, rinsed in PBS and then incubated with cold 1.5 mg/mL cleavable biotin reagent in PBS (EZ-Link Sulfo-NHS-SS biotin, Pierce) for 20 min at 4° C. […] Cells were then lysed in 800 μl PBS containing 0.1% SDS, 1% NP40 and a complete protease inhibitor cocktail. After centrifugation, biotinylated proteins were retrieved by incubation with NeutrAvidin agarose (50 μl; Pierce). Isolated proteins were rinsed in buffer three times and boiled in 20 μl sample buffer for Western blots.
In general terms: Immunoblotting shows a protein as a band on a membrane.

The test system of experiment [2] is N2a-APPsw cells. The experiment can be described thus: Cellular Aβ production in N2a-APPsw cells (Aβ40 ELISA of conditioned medium). It counts as cell-based, mouse.
Experiment [3] relates to N2a-APPsw cells. The description is as above. It counts as cell-based, mouse. As to the method: Quantification of β-Amyloid40, Neuro-2a cell stably overexpressing APPsw695 was used for detecting of β-Amyloid40. N2a-APPsw cells were grown in Dulbecco's Modified Eagle's medium (DMED) containing 10% fetal bovine serum, 100 U/mL penicillin, and 100 μg/mL streptomycin (GibcoBUR) with 80 μg/mL G418. Cells were cultured in 24-well plates one day before treatment. Transient transfections were done using FeGENE6 (Roche), fresh Optimum medium (Invitrogen) were supplied 5 h after transfection. Same concentration purified Apolipoprotein was added into the fresh medium. Conditioned medium was collected 24 h later. Aβ40 was quantified with sandwich ELISA by using Aβ40 ELISA Kit (Biosource). At least three times assays were done for each condition.
(§1) Cellular Aβ40 production. Neuroblastoma N2a-APPsw cells (from Dr. Riqiang Yan, Lerner Research Institute, Cleveland, Ohio) were cultured in 24-well plates in Dulbecco's Modified Eagle's medium (DMED) containing 10% fetal bovine serum, 100 U/mL penicillin, and 100 μg/mL streptomycin (GibcoBUR) with 80 μg/mL G418 one day before use. Transient transfections were done using FeGENE6 (Roche), fresh Optimum medium (Invitrogen) were supplied 5 h after transfection. Apolipoproteins were added in the fresh medium at 10 μg/mL. Conditioned medium was collected 24 h later. Aβ40 was determined in tripcates using Aβ40 ELISA Kit (Biosource). For studying the effect of PTB domain on Aβ production, N2a-APPsw cells were transfected with (0.4 μg/per well for 24 well plate) of PTB-containing vector before subjected to the above procedure.
The source holds these as a separate data set.

Experiment [4] relates to N2a-APPsw cells transfected with ApoER2 and β-secretase. Put plainly: Internalization of cell surface proteins (biotinylation, Western blot). It counts as cell-based, mouse. Conditions: Western blot of conditioned medium (FIG. 6D).
The target of experiment [5] is LDL (low-density lipoprotein) lipid receptor (Homo sapiens, UniProt P01130). The settings on record: cited from earlier work.
In a further experiment the test system is endogenous X11α/β. The experiment can be described thus: Effect of transfected PTB domain of X11α on ApoE-induced Aβ production. Type of experiment: cell-based, mouse. The settings on record: PTB expression in N2a-APPsw cells, 0.4 μg vector per well (FIG. 9B). The protocol:
as §1

The target in a further experiment is T1, ApoER2 (Mus musculus, UniProt Q924X6).
T1 construct: expressed in transfected cells; host or cells: HEK293 (inferred; the pull-down text names HEK293 lysates only for X11-transfected cells)
T1 sequence (Q924X6 29-996): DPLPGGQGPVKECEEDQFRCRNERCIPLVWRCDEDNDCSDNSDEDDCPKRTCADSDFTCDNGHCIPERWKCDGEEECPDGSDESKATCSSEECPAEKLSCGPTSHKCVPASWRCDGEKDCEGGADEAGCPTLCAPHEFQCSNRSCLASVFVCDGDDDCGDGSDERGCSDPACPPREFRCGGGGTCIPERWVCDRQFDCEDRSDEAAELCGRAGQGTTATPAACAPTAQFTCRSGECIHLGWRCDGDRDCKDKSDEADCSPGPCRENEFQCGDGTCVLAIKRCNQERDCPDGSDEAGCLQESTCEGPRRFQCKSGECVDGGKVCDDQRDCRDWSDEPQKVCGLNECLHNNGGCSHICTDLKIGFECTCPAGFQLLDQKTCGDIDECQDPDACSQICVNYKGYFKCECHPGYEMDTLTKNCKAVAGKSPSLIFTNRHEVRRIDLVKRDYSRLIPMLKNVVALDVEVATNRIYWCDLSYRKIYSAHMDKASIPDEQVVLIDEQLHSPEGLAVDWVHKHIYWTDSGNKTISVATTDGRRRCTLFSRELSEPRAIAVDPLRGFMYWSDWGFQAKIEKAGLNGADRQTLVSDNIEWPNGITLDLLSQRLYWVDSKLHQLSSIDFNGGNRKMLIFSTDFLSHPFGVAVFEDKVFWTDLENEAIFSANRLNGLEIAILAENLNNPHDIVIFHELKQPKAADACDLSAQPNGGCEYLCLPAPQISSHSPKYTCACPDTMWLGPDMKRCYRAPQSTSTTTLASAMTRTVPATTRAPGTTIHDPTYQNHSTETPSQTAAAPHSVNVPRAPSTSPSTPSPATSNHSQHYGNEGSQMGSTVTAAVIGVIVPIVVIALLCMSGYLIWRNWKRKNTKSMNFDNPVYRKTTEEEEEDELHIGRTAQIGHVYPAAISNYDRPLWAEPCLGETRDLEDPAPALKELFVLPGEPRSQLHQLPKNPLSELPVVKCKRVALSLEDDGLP
Put plainly: GST pull-down of ApoER2 by X11α domains. Conditions: GST fusions of X11α domains, Western blot (FIG. 8A). Type of experiment: binding, murine. The source says: cDNA vectors. Vectors for human β-secretase and Swedish mutant of APP were previously described (Lin et al., 2000). Vectors for human X11α, X11β, human LRP, and murine ApoER2 were kindly provided by Dr. Chistopher C J Miller (Kings College London, UK), Dr. Ben Margolis (University of Michigan), Dr. Guojun Bu (Washington University), and Dr. Johannes Nimpf (University of Vienna, Austria) respectively. PCR was used for transferring murine ApoER2 gene into pcDNA6 with V5-His-Tag at the C-terminus and for creating mutants of murine ApoER2 in pcDNA6. PTB domain of X11α (residue 457-751) were amplified by PCR and inserted into pcDNA6. GST constructs of GST-PTB (457-751), GST-PDZ (650-837) of X11α and GST constructs of ApoER2 cytosolic domain GST-ApoC1 (881-996), GST-ApoC2 (881-925), GST-ApoC3 (926-996) and GST-APPc (650-695) were amplified by PCR and inserted into plasmid pGEX6.1 (Pharmacia). All constructs were verified by sequencing. GST fusion proteins were produced in Escherichia coli BL21 strain and purified as described previously (He et al., 2003).
Pull-down assays. For GST pull down, GST fusion proteins were retrieved as previously described (He et al., 2003). The amount of protein recovered with glutathione beads was determined using Bio-Rad Protein Assay and diluted to yield a concentration of 1 mg protein/mL of beads. […]

Where [6] appears, read: 10 μg/mL, internalization 15 min at 37° C. (FIG. 6B).

LDL (low-density lipoprotein) lipid receptor, sequence (P01130 22-860): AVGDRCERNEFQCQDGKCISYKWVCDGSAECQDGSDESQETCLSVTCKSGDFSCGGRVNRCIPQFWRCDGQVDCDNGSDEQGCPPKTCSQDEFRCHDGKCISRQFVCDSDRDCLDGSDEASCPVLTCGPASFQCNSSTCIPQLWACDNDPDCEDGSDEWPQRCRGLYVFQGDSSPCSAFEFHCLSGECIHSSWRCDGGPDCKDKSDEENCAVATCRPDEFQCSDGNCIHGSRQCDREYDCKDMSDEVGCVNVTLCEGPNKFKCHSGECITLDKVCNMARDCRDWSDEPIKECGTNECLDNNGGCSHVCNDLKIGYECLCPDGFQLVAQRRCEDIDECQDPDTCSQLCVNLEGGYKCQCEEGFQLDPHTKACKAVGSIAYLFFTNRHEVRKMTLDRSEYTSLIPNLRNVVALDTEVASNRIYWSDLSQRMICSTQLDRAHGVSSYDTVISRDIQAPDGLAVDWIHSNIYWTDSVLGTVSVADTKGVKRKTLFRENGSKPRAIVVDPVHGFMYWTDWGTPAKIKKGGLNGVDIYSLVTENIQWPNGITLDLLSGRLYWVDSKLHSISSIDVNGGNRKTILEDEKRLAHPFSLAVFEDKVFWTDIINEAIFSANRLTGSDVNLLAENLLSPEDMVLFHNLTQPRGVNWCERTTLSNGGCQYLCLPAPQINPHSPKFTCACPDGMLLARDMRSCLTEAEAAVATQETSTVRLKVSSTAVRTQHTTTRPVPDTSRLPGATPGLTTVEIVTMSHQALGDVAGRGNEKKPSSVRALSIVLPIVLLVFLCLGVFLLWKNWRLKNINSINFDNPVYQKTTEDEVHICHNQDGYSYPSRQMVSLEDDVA

As to “ApoE4: ApoE isoform with arginine substituted for cysteine at residue 112; from Biodesign / Alpha Diagnostic”, the “total amounts of ApoER2, APP and β-secretase in the cell lysates” value in experiment [1] (10 μg/mL, 2 h) was “remained about the same”. Further, the “decrease of remaining cell-surface β-secretase” value in experiment [1] (10 μg/mL, 2 h, compared to controls (FIG. 6A)) is given as approximately 35%. Moreover, in experiment [1] (setting [6]), the “increase of intracellular APP” value is recorded as approximately 4 fold, the “increase of intracellular ApoER2” value is “small increases” and the “increase of intracellular β-secretase” value is on record as “small increases”. For the same molecule, in experiment [1] (Western blot, over the control (FIG. 6C)), the “intracellular APP C-terminal fragment C99” value is listed as “significantly increased”. In addition, the “Aβ40 increase in cells transfected with ApoER2 versus blank vectors” value with N2a-APPsw cells [2] (5 μg/mL, N2a APPsw cells, p<0.05 (FIG. 4)) was “increase of Aβ40 at a greater extent”. Also, in the experiment with N2a-APPsw cells [2] (5 μg/mL, blank vector transfected N2a APPsw cells vs control (FIG. 4)), the “Aβ40 levels in medium” value is on record as “increased over that in the control cells”. Also, the Aβ production result in the experiment on N2a-APPsw cells [2] (each at 5 μg/mL, 24 h, N2a-APPsw cells (FIG. 5B legend)) is reported as “increased Aβ production”. Besides, the “Aβ production in cells transfected with ApoER2 versus without” value with N2a-APPsw cells [3] (N2a-APPsw cells (FIG. 5D)) is given as “produced more Aβ”. Besides, the “Aβ40 and Aβ42 production, ApoE4 in native human VLDL versus ApoE2 and ApoE3” value in the experiment with N2a-APPsw cells [3] (VLDL from individual human plasma, N2a-APPsw cells (FIG. 5C)) is “stimulates higher Aβ production”. Besides, the Aβ production entry in the experiment with N2a-APPsw cells [3] (recombinant ApoE forms at 10 μg/ml, N2a-APPsw cells (FIG. 5B)) is listed as “increased Aβ production (FIG. 5B) with the highest response”. Moreover, the “APP ectodomain generated by ∝-secretase, s∝-APP” value in experiment [4] is “reduction”. For the same molecule, the “normal receptor binding activity” value in experiment [5] is given as 100%.

B1: PTB domain: PTB domain of X11α (residue 457-751), expressed from pcDNA6 as dominant-negative inhibitor or as GST fusion (protein)
chain: DGIIFAANYLGSTQLLSDKTPSKNVRMMQAQEAVSRIKMAQKLAKSRKKAPEGESQPMTEVDLFISTQRIKVLNADTQETMMDHPLRTISYIADIGNIVVLMARRRMPRSNSQENVEASHPSQDGKRQYKMICHVFESEDAQLIAQSIGQAFSVAYQEFLRANGINPEDLSQKEYSDLLNTQDMYNDDLIHFSKSENCKDVFIEKQKGEILGVVIVESGWGSILPTVIIANMMHGGPAEKSGKLNIGDQIMSINGTSLVGLPLSTCQSIIKGLKNQSRVKLNIVRCPPVTTVLIR
modifications: left off: a dimerising Fc or GST
Take B1: the “ApoE4-induced Aβ increase” value with endogenous X11α/β was “largely abolished”. The “pull down of ApoER2 from the cell lysate” value with ApoER2 was “pull down ApoER2”.
